Reference: patent US20260001928A1 (CORTERIA PHARMACEUTICALS, priority 2022, published 2026)
pEC50: −log10 of the molar value. *1 amine or outer side, *2 acyl side, *3 side chain or, on linkers, in order; H or OH if unused. Where a SMILES comes first, the peptide text is derived from it. Side-chain parts run from the residue outwards. [ ]: non-standard residue; d: D form. The star is where a group is joined. C18 diacid = O=C(O)CCCCCCCCCCCCCCCCC(=O)*; C16 diacid = O=C(O)CCCCCCCCCCCCCCC(=O)*; γGlu = O=C(O)[C@H](CCC(=O)[*:2])N[*:1]; AEEA = NCCOCCOCC(=O)O; Aib = CC(C)(N)C(=O)O; Butyryl = CCCC(=O)*

What was measured:
[1] = molecular target: T1, human CRF2a receptor (Homo sapiens, UniProt Q13324); experiment: Activity at human CRF2a receptor, cAMP functional assay in TeloHEAC cells; assay type: cell-based; conditions: TeloHEAC cells stably expressing human CRF2a receptor, relative to urocortin 2 (100 nM = 100%)
T1 construct: expressed in transfected cells; host or cells: TeloHEAC cells
T1 sequence (Q13324 1-411): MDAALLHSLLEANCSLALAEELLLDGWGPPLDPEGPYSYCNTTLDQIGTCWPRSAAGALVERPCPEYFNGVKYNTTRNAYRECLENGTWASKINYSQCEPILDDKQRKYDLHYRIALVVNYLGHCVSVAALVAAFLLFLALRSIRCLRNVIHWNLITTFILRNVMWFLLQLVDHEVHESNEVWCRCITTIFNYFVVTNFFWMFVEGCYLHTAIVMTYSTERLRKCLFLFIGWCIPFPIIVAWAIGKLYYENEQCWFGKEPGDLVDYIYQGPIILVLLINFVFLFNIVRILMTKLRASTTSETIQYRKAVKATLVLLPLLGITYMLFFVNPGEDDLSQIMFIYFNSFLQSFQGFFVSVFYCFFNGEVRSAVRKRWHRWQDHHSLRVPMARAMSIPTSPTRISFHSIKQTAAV
Method in brief: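 TeloHEAC cells stably expressing human CRF2a (10000 cells/well, suspended in HBSS/20 mM HEPES with 2 mM IBMX) were exposed to compounds for 30 min at 37 °C. cAMP was read as the 665/620 nm fluorescence ratio after 1 h at room temperature. EC50 was derived relative to 100 nM urocortin 2, set as 100%.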

[2] = molecular target: T2, CFR1R receptor (Homo sapiens, UniProt P34998); experiment: Activity at anti-target CFR1R receptor, cAMP assay in CRF1R-overexpression CHO-K1 cells; assay type: cell-based; conditions: 100% = Sauvagine at 100 nM; for pEC50: cAMP
T2 construct: host or cells: CHO-K1 (clone 2)
T2 sequence (P34998 24-415): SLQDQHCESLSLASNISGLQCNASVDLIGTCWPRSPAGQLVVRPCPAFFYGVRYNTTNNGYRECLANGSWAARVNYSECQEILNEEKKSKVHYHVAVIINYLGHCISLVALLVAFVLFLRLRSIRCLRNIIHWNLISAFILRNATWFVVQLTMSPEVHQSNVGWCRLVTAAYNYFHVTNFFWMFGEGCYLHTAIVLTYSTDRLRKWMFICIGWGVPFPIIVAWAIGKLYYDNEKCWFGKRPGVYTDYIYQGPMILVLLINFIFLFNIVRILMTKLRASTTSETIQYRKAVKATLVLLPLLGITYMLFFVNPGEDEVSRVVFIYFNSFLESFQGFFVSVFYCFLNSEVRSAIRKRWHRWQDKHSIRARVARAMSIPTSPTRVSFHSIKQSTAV
Method in brief: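 The method mirrors that used with TeloHAEC cells. Here, thawed clone 2 cells seeded at 4000 cells/well are tested, and 100 nM Sauvagine sets the top of the activation scale.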

SMILES: CCCC(=O)N[C@H](C(=O)N[C@@H](CC(C)C)C(=O)N[C@@H](CO)C(=O)N[C@@H](CC(C)C)C(=O)N[C@@H](CC(=O)O)C(=O)N[C@@H](C(=O)N1CCC[C@H]1C(=O)N[C@H](C(=O)N[C@@H](CCCCN)C(=O)N[C@@H](CC(C)C)C(=O)N[C@@H](CCCCNC(=O)CC[C@H](NC(=O)CCCCCCCCCCCCCCC(=O)O)C(=O)O)C(=O)N[C@@H](CCCCN)C(=O)N[C@H](C(=O)N[C@@H](CC(C)C)C(=O)N[C@@H](CC(C)C)C(=O)N[C@@H](CCC(=O)O)C(=O)N[C@@H](CCC(N)=O)C(=O)N[C@@H](CCC(=O)O)C(=O)N[C@@H](CCCCN)C(=O)N[C@@H](CCC(N)=O)C(=O)N[C@@H](CCCCN)C(=O)N[C@@H](CCCCN)C(=O)N[C@@H](CCC(N)=O)C(=O)N[C@@H](CCCNC(=N)N)C(=O)N[C@@H](CCC(=O)O)C(=O)N[C@@H](CCC(N)=O)C(=O)N[C@@H](C)C(=O)N[C@@H](CCC(=O)O)C(=O)N[C@H](C(=O)N[C@@H](CC(N)=O)C(=O)NC(C)(C)C(=O)N[C@@H](CCC(N)=O)C(=O)N[C@H](C(=O)N[C@@H](CC(C)C)C(=O)N[C@@H](C)C(=O)N[C@@H](CCC(N)=O)C(=O)N[C@H](C(N)=O)C(C)C)[C@@H](C)CC)[C@@H](C)O)[C@@H](C)CC)[C@@H](C)CC)C(C)C)C(C)C [compound 79] (Butyryl-VLSLD[dV]PIKLK([γGlu-C16 diacid])KILLEQEKQKKQREQAETN[Aib]QILAQV-NH2)
- pEC50 [1]: 9.42
- Emax (% I) [2]: 10 % I
- pEC50 [2]: < 6.60

SMILES: CC[C@H](C)[C@H](NC(C)=O)C(=O)N[C@H](C(=O)N[C@@H](CC(C)C)C(=O)N[C@@H](CO)C(=O)N[C@@H](CC(C)C)C(=O)N[C@@H](CC(=O)O)C(=O)N[C@@H](C(=O)N1CCC[C@H]1C(=O)N[C@H](C(=O)N[C@@H](CCCCN)C(=O)N[C@@H](CC(C)C)C(=O)N[C@@H](CCCCNC(=O)COCCOCCNC(=O)CC[C@H](NC(=O)CC[C@H](NC(=O)CCCCCCCCCCCCCCCCC(=O)O)C(=O)O)C(=O)O)C(=O)N[C@@H](CCCCN)C(=O)N[C@H](C(=O)N[C@@H](CC(C)C)C(=O)N[C@@H](CC(C)C)C(=O)N[C@@H](CCC(=O)O)C(=O)N[C@@H](CCC(N)=O)C(=O)N[C@@H](CCC(=O)O)C(=O)N[C@@H](CCCCN)C(=O)N[C@@H](CCC(N)=O)C(=O)N[C@@H](CCCCN)C(=O)N[C@@H](CCCCN)C(=O)N[C@@H](CCC(N)=O)C(=O)N[C@@H](CCCNC(=N)N)C(=O)N[C@@H](CCC(=O)O)C(=O)N[C@@H](CCC(N)=O)C(=O)N[C@@H](C)C(=O)N[C@@H](CCC(=O)O)C(=O)N[C@H](C(=O)N[C@@H](CC(N)=O)C(=O)NC(C)(C)C(=O)N[C@@H](CCC(N)=O)C(=O)N[C@H](C(=O)N[C@@H](CC(C)C)C(=O)N[C@@H](C)C(=O)N[C@@H](CCC(N)=O)C(=O)N[C@H](C(N)=O)C(C)C)[C@@H](C)CC)[C@@H](C)O)[C@@H](C)CC)[C@@H](C)CC)C(C)C)C(C)C [compound 205] (Ac-IVLSLD[dV]PIKLK([AEEA-γGlu-γGlu-C18 diacid])KILLEQEKQKKQREQAETN[Aib]QILAQV-NH2)
- pEC50 [1]: 8.84
- Emax (% I) [2]: 1 % I
- pEC50 [2]: < 6.60
